# Data from patent US20250100947A1, “NITROUS OXIDE INHIBITOR” (His Majesty the King in Right of New Zealand Acting Through …, priority 2021, published 2025).
# Assays:
# [1] = system: NO3^− leaching from grazed pasture soil; experiment: Field lysimeter study of nitrate leaching from cow urine; details: for % Reduction of leaching due to inhibitor: compared to the urine only treatment, P<0.05; for Total leaching: cow urine 600 kg N ha^−1, inhibitor applied within 1 hour, DCD at 10 kg ha^−1, urine alone 358
# Description: A field lysimeter study was conducted to examine the effects of albendazole sulfoxide on NO3^− leaching resulting from cow urine applied to a grazed pasture (at a loading rate of about 600 kg N ha^−1). The field lysimeter experiment was a randomized complete block design with the following treatments: • Control (no urine and no inhibitor) • Urine alone (600 kg N ha^−1) • Urine plus DCD (DCD solution at 10 kg ha^−1) • Urine plus albendazole sulfoxide (supplied by AgResearch Palmerston North)
# Urine was collected from dairy cows that had been grazing an established ryegrass-white clover pasture. The cow urine was bulked and held at 4° C. for a few days prior to application. The urine was applied in a single application at an N loading rate of 600 kg N ha^−1 and a hydraulic loading rate of 10 L m^−2 to simulate dairy cow urine deposition. […] The treatments were replicated 6 times.
# These urine and inhibitor treatments were also simultaneously applied to associated 0.5 m^2 plots so that soil samples could be taken throughout the trial to monitor mineral N transformations and moisture levels.
# Leachate volumes were measured from the lysimeters when drainage occurred over the drainage period (May-October). Subsamples of leachate were collected and frozen at −20° C. prior to analysis for nitrate N(NO3^−N) and ammonium N(NH4^+—N) using a Skalar SAN^++ segmented auto flow analyser (Skalar Analytical B.V., Breda, Netherlands).
# [2] = system: N2O emissions from urine-treated pasture soil; experiment: Field trial, static chamber N2O emissions from simulated cattle urine patches; details: for Net emitted: control subtracted
# Excerpt: A trial site was fenced off and stock excluded for about 14 weeks, until the commencement of the field trials, to avoid interference from fresh dung and urine inputs and reduce spatial heterogeneity/variability from the previous uneven deposition of dung and urine.
# Approximately two weeks before the commencement of the trial, pasture was mown to 50 mm height, 4 soil samples (to 100 mm depth) were collected for physicochemical characterisation and Field plots were established in a randomised complete block design with 5 treatments as shown in Table 1. Plot size was 2.5×2.5 m for all treatments with an additional buffer area of at least 0.5 m between adjacent plots.
# Natural urine deposition was simulated with 2 L cattle urine (containing 8.35 g N L^−1) in large static chambers allowing for urine edge-effect. All solutions containing a N2O inhibitor were applied at the same rate (30 mL/Chambers; 600 L/ha). For all urine treatments, 2 L urine was poured to the central point of the chamber base area at a height of approximately 1.2 m and allowed to spread naturally. To mimic the “Spikey®” urine patch treatment, a spot-sprayer system (supplied by Pastoral Robotics Limited) was used for treating the urine patch in the large chambers. All the inhibitor compositions were applied to the relevant treatments within 4 h after urine application.
# A static chamber technique was used to measure N2O emissions, and the methodology was based on that used in a previous published study on N2O emissions (Luo et al 2015). One week before the trial began, static chamber bases (80 cm diameter) were inserted into the soil. Herbage within the chamber base and the ring areas was cut to 50 mm above ground level before the application of the treatments.
# Pre-treatment gas flux was taken from each chamber a day before the application of treatments to determine the spatial variability of background of N2O flux between the plots and to assist with interpretation of patterns of N2O flux from individual sampling plots post treatment application as a covariate for statistical analysis of post-treatment emissions.
# Post treatment gas measurements were carried out at 2, 24 and 72 h after application of the urine and inhibitor compositions, twice a week for the first 8 weeks and thereafter weekly. The measurements were continued until the N2O flux values for treatment plots reached the background levels measured in the control plots. During weekly phases of N2O flux measurement, additional sampling occurred as soon as practical following rainfall events of greater than 10 mm of rain in the previous 24 h. On each sampling day, N2O measurements were carried out between 1000 and 1200 h. Gas samples from chamber headspace were taken during a cover period of 100 minutes at times t0, […] (or similar). Two background atmosphere samples were also taken on each sampling day at each site. […] The measurements of N2O emission from the treatment plots continued until the first week of September. During this period, 3 pasture harvests were taken, and herbage samples analysed for N content.
# Nitrous oxide concentration of gas samples were analysed by gas chromatograph using a Shimadzu GC-17a gas chromatograph equipped with a 63Ni-electroncapture detector (oven, valve and detector temperatures were operated at 65, 100 and 280° C., respectively, using oxygen-free N as a carrier gas and connected to an automatic sampler capable of handling up to 120 samples, and a SRI 8610 automated gas chromatograph. Chamber temperatures were recorded at the beginning and end of the cover period and the average of the two readings were considered the chamber temperature for calculating gas flux. The increase in N2O concentration within the chamber headspace, for the gas samples collected at t0, t50 and t100 was generally linear (R2>0.90). Therefore, the hourly N2O fluxes will be calculated using linear regression and the ideal gas law according to Equation 1: […]
# [3] = system: soil potential denitrification (DEA) enzyme activity; experiment: Soil denitrification enzyme activity (DEA) short-term incubation; format: biochemical
# Description: Short-term incubation studies were conducted to determine the effect of the compound of the invention on soil potential denitrification (DEA) enzyme activity. Details of each assay are described in Zhong et al. (2015, 2016).
# The denitrification assay involved testing the effect of five ALBSO treatments: 0 (water only), carrier (formic acid only), low (0.011 μg ALBSO g^−1 dry soil), high (0.046 μg ALBSO g^−1 dry soil) and very high (0.91 μg ALBSO g^−1 dry soil) at a common N rate delivered as KNO3.
# The ALBSO treatments were formulated with an absolute minimum amount of formic acid needed to just dissolve the required amount of ALBSO into solution. Identical amounts of formic acid were used to formulate the carrier, low, high and very high ALBSO treatments, with the carrier containing only formic acid and water. The pH of carrier, low, high and very high ALBSO treatment solutions was identical and mildly acidic.
# After a 4-hour incubation period, N2O concentrations were lower (P<0.008) for incubation vessels that had been treated with ALBSO. […] Typically, results for this kind of incubation become unreliable after 6 hours, however, the 8 hour sampling in case the high level of N addition allowed for a longer period of microbial activity.
# A further incubation was performed to test the effect of the carrier as well as the high rate of ALBSO on denitrification enzyme activity.
# The final incubation included a treatment where acetylene was not added. The use of acetylene gives further information on whether the ALBSO effect on denitrification is due to effects on enzymes linked to nirK and nirS (with acetylene) or nosZ (without acetylene) genes. […] Letters refer to ALBSO effects within acetylene treatments (LSD 5.3, n=3).
# [4] = Urine + high concentration ALBSO (900 μg), UA1
# [5] = Urine + low concentration ALBSO (266 μg), UA2
compound,measurement,setting,value
"CCC[S+]([O-])c1ccc2[nH]c(NC(=O)OC)nc2c1 (stereo not drawn) [ALBSO, methyl [5-(propane-1-sulfinyl)-1H-benzoimidazol-2-yl]-carbamate]",% Reduction of leaching due to inhibitor,[1],20%
same,Total leaching,[1],289 kg NO3^−—N ha^−1
same,Total emitted,"[2]; Urine 2 L + high concentration ALBSO (900 μg in 0.054M formic acid), UA1, cumulative over 4 months",3703 g N2O—N
same,Total emitted,"[2]; Urine 2 L + low concentration ALBSO (266 μg in 0.054M formic acid), UA2, cumulative over 4 months",3147 g N2O—N
same,EF3 (% of applied N emitted),[2]; [4],0.84 % of applied N emitted
same,Net emitted,[2]; [4],2807 g N2O—N
same,EF3 (% of applied N emitted),[2]; [5],0.68 % of applied N emitted
same,Net emitted,[2]; [5],2251 g N2O—N
same,Emissions from treated urine,[2]; urine treated with low concentration ALBSO composition,3147 g N2O—N ha^−1
same,ppm N2O after 4 h,"[3]; High (0.046 μg ALBSO g^−1 dry soil), first incubation, n=3, H2O 138",102 ppm N2O
same,ppm N2O after 8 h,"[3]; High (0.046 μg ALBSO g^−1 dry soil), first incubation, H2O 236",217 ppm N2O
same,"N2O concentration after 4-hour incubation, acetylene not added","[3]; High ALBSO, final incubation, n=3, Acetylene No, H2O 97.3",84.7a ppm N2O
same,"N2O concentration after 4-hour incubation, acetylene added","[3]; High ALBSO, final incubation, n=3, Acetylene Yes, H2O 96.9",90.9a ppm N2O
same,ppm N2O after 4 h,"[3]; High rate of ALBSO, further incubation with carrier, n=4, H2O 97",90 ppm N2O
same,ppm N2O after 8 h,"[3]; High rate of ALBSO, further incubation with carrier, n=4, H2O 137",131 ppm N2O
same,ppm N2O after 4 h,"[3]; Low (0.011 μg ALBSO g^−1 dry soil), first incubation, n=3, H2O 138",96 ppm N2O
same,ppm N2O after 8 h,"[3]; Low (0.011 μg ALBSO g^−1 dry soil), first incubation, H2O 236",233 ppm N2O
same,ppm N2O after 4 h,"[3]; Very High (0.91 μg ALBSO g^−1 dry soil), first incubation, n=3, H2O 138",86 ppm N2O
same,ppm N2O after 8 h,"[3]; Very High (0.91 μg ALBSO g^−1 dry soil), first incubation, H2O 236",232 ppm N2O
same,"N2O concentrations after 4-hour incubation, treated vs untreated vessels","[3]; all ALBSO amounts, P<0.008, 28° C., anaerobic",lower
same,Effect on reducing N2O over both acetylene treatments,"[3]; final incubation, P=0.005",significant effect of ALBSO on reducing N2O
"N#CN=C(N)N [DCD, dicyandiamide, reference compound]",% Reduction of leaching due to inhibitor,[1],30%
same,Total leaching,[1],253 kg NO3^−—N ha^−1
same,Total emitted,"[2]; Urine 2 L (16.70 g N) + DCD (0.25 g N), UDCD, cumulative over 4-month measurement period",3142 g N2O—N
same,EF3 (% of applied N emitted),"[2]; Urine + DCD (0.25 g N), UDCD",0.67 % of applied N emitted
same,Net emitted,"[2]; Urine + DCD (0.25 g N), UDCD",2246 g N2O—N
same,Emissions from treated urine,[2]; urine treated with DCD,3142±300 g N2O—N ha^−1
